These results are taken from publication PMC10815578 (International Journal of Molecular Sciences, 2024).

As a reminder, the Ki is the dissociation constant of the complex between target and ligand, obtained from inhibition or displacement. The IC50 is the concentration that inhibits the measured activity by half. One may read the EC50 as the concentration at which the effect is half-maximal. In general, inhibition refers to the drop in the measured response relative to a control, in per cent.

Values joined by “and” are separate entries in the source; they are usually repeats but may differ in a detail not shown here. Identical values can stand only once.

For one data set, the system named is OAT3. The note with it: Supplementary table, cited from earlier work; for IC50: ref previous reports (superscript numbers).
In another data set the test system is OATP1B1. The note with it: Supplementary table, ref previous reports (superscript numbers), cited from earlier work; for IC50: read-out: OATP1B1 IC50; for Ki: read-out: OATP1B1 Ki (asterisk).
The target in data set [1] is T1, OATP4C1 (Homo sapiens, UniProt Q6ZQN7).
T1 sequence (Q6ZQN7 1-724): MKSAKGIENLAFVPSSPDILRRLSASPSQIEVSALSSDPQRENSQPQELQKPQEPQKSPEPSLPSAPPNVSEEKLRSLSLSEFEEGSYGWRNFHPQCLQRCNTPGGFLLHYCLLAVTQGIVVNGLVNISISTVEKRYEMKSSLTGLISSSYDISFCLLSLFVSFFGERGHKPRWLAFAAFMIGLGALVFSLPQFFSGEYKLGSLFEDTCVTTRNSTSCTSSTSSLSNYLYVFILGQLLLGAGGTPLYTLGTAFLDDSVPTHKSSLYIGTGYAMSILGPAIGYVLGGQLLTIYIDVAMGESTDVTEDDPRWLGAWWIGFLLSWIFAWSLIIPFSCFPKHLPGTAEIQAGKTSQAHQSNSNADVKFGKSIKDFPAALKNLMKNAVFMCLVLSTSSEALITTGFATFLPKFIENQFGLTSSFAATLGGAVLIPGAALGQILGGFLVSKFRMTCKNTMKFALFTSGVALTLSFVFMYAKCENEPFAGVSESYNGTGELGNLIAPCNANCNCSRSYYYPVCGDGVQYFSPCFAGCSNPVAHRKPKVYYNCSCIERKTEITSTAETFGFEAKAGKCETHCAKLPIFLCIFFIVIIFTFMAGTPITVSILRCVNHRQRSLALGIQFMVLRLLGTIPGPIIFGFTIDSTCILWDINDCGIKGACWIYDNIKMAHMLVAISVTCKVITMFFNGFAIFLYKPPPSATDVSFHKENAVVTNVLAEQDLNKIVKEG
As to the kind of experiment: Inhibition of OATP4C1-mediated T3 uptake in OATP4C1/MDCKII cells. The following applies: for alteration of OATP4C1-mediated transport (in words): 100 µM (theaflavin 50 µM); for inhibition at 10 min, 100 µM: human, pH 7.4, probe T3 (1 µM); for Ki: Ki for OATP4C1 (average); for inhibitory effect on OATP4C1-mediated transport in the presence of AA compared with its absence: 10 µM AA.
Protocol: Figure 3 Screening of the effect of food ingredients on OATP4C1-mediated transport. Cells were incubated with 1 µM T3 with or without food ingredients for 10 min at 37 °C. The concentration of the compounds was 100 µM, except for theaflavin (50 µM). The amount of OATP4C1-mediated uptake was calculated by subtracting the nonspecific uptake of T3 by mock cells from the total cellular uptake by OATP4C1-expressing cells. […] Dashed line represents 100% (control uptake in the absence of food ingredient).
The MDCKII cells transfected with OATP4C1 or an empty vector were established in our laboratory [18].
The cellular uptake of T3 was measured in monolayer cell cultures grown in 24-well plates. Cells were seeded at a density of 2.0 × 10^5 cells/well. Thereafter, the cells were incubated in a culture medium containing 5 mM sodium butyrate for 24 h before the uptake study. […] Cellular uptake was initiated by adding T3-containing KH buffer with or without each flavonoid. Uptake was terminated after 10 min by replacing the incubation buffer with ice-cold KH buffer. The cells were washed twice with ice-cold KH buffer. The concentration of T3 was measured using liquid chromatography/tandem mass spectrometry (LC/MS/MS). Cellular uptake was presented as the uptake amount divided by the amount of cellular protein quantified using the Bradford protein assay. The experiment was performed in triplicate (n = 3) and repeated three times. Flavonoids, except ellagic acid, were dissolved in dimethyl sulfoxide (DMSO) at a final concentration of less than 0.5%. A stock solution of ellagic acid (20 mM) was obtained by dissolving it in 0.05 M NaOH and was further diluted to 100 µM in KH buffer (the pH was adjusted to 7.4).
The experiment was performed in triplicate (n = 3) and repeated three times.

The test system of the next data set is OAT1. The following applies: Supplementary table, cited from earlier work; for IC50: ref previous reports (superscript numbers).
Another data set relates to OATP2B1. The note with it: Supplementary table, ref previous reports (superscript numbers), cited from earlier work; for IC50: read-out: OATP2B1 IC50; for Ki: read-out: OATP2B1 Ki (asterisk).
In a further data set the test system is OATP1B3. The note with it: cited from earlier work; for IC50: read-out: OATP1B3 IC50; for IC50 / Ki: ref previous reports (superscript numbers); for Ki: read-out: OATP1B3 Ki (asterisk).
Data set [2] addresses T1, OATP4C1. As to the kind of experiment: Kinetic analysis of OATP4C1-mediated T3 uptake in the presence of inhibitors. Type of data set: cell-based. Also on record: expressed in transfected cells; sodium butyrate induction before uptake. How it is done: Data are shown as the mean ± SE (n = 6). The kinetic curves were fitted to the Michaelis–Menten equation. […] Each curve represents the fitted line obtained by the kinetic analysis by JMP Pro 16.
The kinetic curves were fitted to the Michaelis–Menten equation. […] The experiment was performed in duplicate (n = 2) and repeated three times.

The subject of another data set is P-gp. The following applies: Supplementary table; ref 40 of the supplement; cited from earlier work.
The mark [3] stands for this setting: 100 µM compound, 1 µM T3, 10 min, 37 °C, without AA.
Setting [4] is: OATP4C1 inhibition degree, 100 µM, Supplementary table.
[5] abbreviates: inhibition of OATP4C1-mediated transport, 100 µM compound, 1 µM T3, 10 min, 37 °C, without AA.

With `O=C(O[C@@H]1Cc2c(O)cc(O)cc2O[C@@H]1c1cc(O)c(O)c(O)c1)c1cc(O)c(O)c(O)c1` [EGCG, epigallocatechin-3-gallate], the inhibition constant Ki was 162 ± 29 µM in the data set with OAT3 (ref 27 of the supplement, read-out: OAT3 Ki (asterisk)) and 334 ± 58 µM in the data set with OAT1 (ref 27 of the supplement, read-out: OAT1 Ki (asterisk)). Also, the half-inhibitory concentration (IC50) in the data set with OATP1B1 is 14.1 µM and 7.8 µM; with OATP2B1, 101 ± 9 µM; in the data set on OATP1B3 (Supplementary table), 8.4 ± 0.6 µM. For the same compound, the “alteration of OATP4C1-mediated transport (in words)” value (“alteration” for short) on OATP4C1 [1] (1 µM T3, 10 min, without AA) is “did not inhibit”. Also, on OATP4C1 [1] (Supplementary table), the “OATP4C1 inhibition or elevation (class)” value was “No”. In addition, the “OATP1B3 inhibition or elevation (class)” value in the data set with OATP1B3 (Supplementary table, ref 25 of the supplement) is given as “Elevation”. The EC50 with OATP1B3 (read-out: OATP1B3 elevation EC50, mean ± S.E., ref 25 of the supplement) was 10.5 ± 1.6 µM.
For the compound `O=c1cc(-c2ccc(O)cc2)oc2cc(O)cc(O)c12` [apigenin], the IC50 with OAT3 was 0.41 ± 0.157 µM; with OATP1B1 it was 53.4 ± 2.1 µM; with OAT1, 0.212 ± 0.01 µM. Besides, the Ki in the data set on OATP1B1 is 0.6 ± 0.2 µM; in the data set with OATP1B3 (Supplementary table), 16.7 ± 1.6 µM. Besides, at OATP4C1 [1] (setting [3]), the “inhibition of OATP4C1-mediated transport” value is 66%. The “OATP4C1 inhibition or elevation (class)” value at OATP4C1 [1] (Supplementary table) is recorded as “Yes”. The inhibition at 10 min, 100 µM against OATP4C1 [1] (setting [4]) was 54%; at OATP4C1 [1] (setting [5]) it was no less than 50%.
With `O=c1oc2c(O)c(O)cc3c(=O)oc4c(O)c(O)cc1c4c23` [ellagic acid], the “alteration” value on OATP4C1 [1] (1 µM T3, 10 min, without AA) is recorded as “did not inhibit”. Also, the “elevation of OATP4C1-mediated transport” value on OATP4C1 [1] (setting [3]) came to 13%. The OATP4C1 elevation degree on OATP4C1 [1] (100 µM, Supplementary table) is 13%. The “OATP4C1 inhibition or elevation (class)” value at OATP4C1 [1] (Supplementary table) is “Elevation”. Besides, the IC50 with OAT1 was 0.207 µM.
For the compound `COc1cc(/C=C/C(=O)O)ccc1O` [ferulic acid, Ferulic acid], the IC50 is 7.35 ± 3.73 µM in the data set on OAT3 and 9.01 µM in the data set on OAT1. Further, the “alteration” value at OATP4C1 [1] (1 µM T3, 10 min, without AA) was “did not inhibit”. For the same compound, the “OATP4C1 inhibition or elevation (class)” value at OATP4C1 [1] (Supplementary table) was “No”.
With `O=c1c(O)c(-c2ccc(O)cc2)oc2cc(O)cc(O)c12` [kaempferol], at OATP4C1 [2] (inhibitor 30 µM, 10 µM AA, 10 min, 37 °C), the “Vmax of OATP4C1-mediated T3 uptake in the presence of the inhibitor” value came to 517 ± 92.6 pmol/mg Protein/10 min. Also, at OATP4C1 [2] (kinetic analysis), the “manner of inhibition of OATP4C1-mediated T3 uptake” value is listed as “competitive manner”. Moreover, the IC50 is 32.4 µM and 33 µM with OATP1B1; 33.7 µM against OATP4C1 [1] (IC50 for OATP4C1, AA(+) 10 µM, 1 µM T3, 10 min); 29.3 µM at OATP4C1 [1] (IC50 for OATP4C1, AA(−), 1 µM T3, 10 min); 20.7 ± 1.8 µM with OATP2B1. In addition, the inhibition constant Ki is 16 ± 1.9 µM in the data set with OATP1B1; 28.8 µM at OATP4C1 [1] (AA(+) 10 µM, 1 µM T3, 10 min); 25.1 µM at OATP4C1 [1] (AA(−), 1 µM T3, 10 min); 15.1 ± 7.8 µM in the data set with OATP2B1; 24.4 ± 1.8 µM with OATP1B3 (Supplementary table).
Take `O=c1cc(-c2ccc(O)c(O)c2)oc2cc(O)cc(O)c12` [luteolin]: the 50% inhibitory concentration (IC50) in the data set with OAT3 was 4.2 µM; in the data set with OATP2B1 it was 0.42 µM. The “inhibitory effect on OATP4C1-mediated transport in the presence of AA compared with its absence” value (“inhibitory effect … compared with its absence” for short) on OATP4C1 [1] (100 µM compound) is “weakened”. On OATP4C1 [1] (Supplementary table), the “OATP4C1 inhibition or elevation (class)” value is “Yes”. For the same compound, the figures for the inhibition at 10 min, 100 µM at OATP4C1 [1] (setting [4]) and on OATP4C1 [1] (setting [5]) were 52% and no less than 50%, respectively.
For the compound `O=c1c(O)c(-c2ccc(O)cc2O)oc2cc(O)cc(O)c12` [morin], the “inhibitory effect … compared with its absence” value at OATP4C1 [1] (100 µM compound) is “weakened”. Moreover, the “OATP4C1 inhibition or elevation (class)” value on OATP4C1 [1] (Supplementary table) was “Yes”. Moreover, the inhibition at 10 min, 100 µM was 57% at OATP4C1 [1] (setting [4]) and no less than 50% against OATP4C1 [1] (setting [5]). In addition, the IC50 in the data set on OAT1 is < 0.3 µM and 0.5 µM.
`O=c1c(O)c(-c2ccc(O)c(O)c2)oc2cc(O)cc(O)c12` [quercetin]: the values for the Ki in the data set on OATP1B1, in the data set on OATP2B1 and in the data set with OATP1B3 (Supplementary table) were 8.8 ± 0.8 µM, 8.7 ± 0.1 µM and 7.8 ± 1.7 µM, respectively. For the same compound, on OATP4C1 [1] (100 µM compound), the “inhibitory effect … compared with its absence” value is given as “weakened”. Besides, at OATP4C1 [1] (Supplementary table), the “OATP4C1 inhibition or elevation (class)” value is on record as “Yes”. Moreover, the figures for the inhibition at 10 min, 100 µM against OATP4C1 [1] (setting [4]) and on OATP4C1 [1] (setting [5]) were 50% and no less than 50%, respectively. Also, the concentration for half-maximal inhibition (IC50) in the data set with OATP1B3 (Supplementary table) is 3.22 µM.
On to `Oc1ccc(/C=C/c2cc(O)cc(O)c2)cc1` [resveratrol, Resveratrol], for which the IC50 with OATP1B1 was 9.1 µM; with P-gp, 6.64 µM; with OATP2B1 it was 8.3 µM; in the data set with OATP1B3 (Supplementary table), 11.6 µM. The inhibition at 10 min, 100 µM against OATP4C1 [1] (setting [4]) and against OATP4C1 [1] (setting [5]) was 46% in each case.
